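Cultured in 96-well plates, cells were exposed to test compound for 48 hours across five concentrations. Abbreviation: GI50, concentration required for 50% inhibition of growth.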 Active and inactive are the calls of the source. No stated cut-off is given here; in the data, active = GI50 up to about 1.1 µM and inactive = higher.
Assays:
Assay in all cases: growth of human tumour cells (NCI), 48 h
[1] = tested on: HCT-116
[2] = tested on: A498
[3] = tested on: SF-295
[4] = tested on: KM12
[5] = tested on: HOP-62
[6] = tested on: SNB-75
[7] = tested on: EKVX
[8] = tested on: SF-268
[9] = tested on: LOX IMVI
[10] = tested on: TK-10
[11] = tested on: OVCAR-8
[12] = tested on: ACHN
[13] = tested on: COLO 205
[14] = tested on: BT-549
[15] = tested on: PC-3
[16] = tested on: Hs-578T
[17] = tested on: HL-60
[18] = tested on: A549
[19] = tested on: UACC-257
[20] = tested on: NCI-H460
[21] = tested on: MOLT-4
[22] = tested on: CCRF-CEM
[23] = tested on: SN12C
[24] = tested on: MDA-MB-435
[25] = tested on: MDA-MB-231
[26] = tested on: K562
[27] = tested on: SK-MEL-28
[28] = tested on: CAKI-1
[29] = tested on: M14
[30] = tested on: SNB-19
[31] = tested on: DU-145
[32] = tested on: SR
[33] = tested on: OVCAR-3
[34] = tested on: UACC-62
[35] = tested on: MCF7
[36] = tested on: SF-539
[37] = tested on: RPMI-8226
[38] = tested on: SK-OV-3
[39] = tested on: NCI-H226
[40] = tested on: SK-MEL-5
[41] = tested on: HCT-15
[42] = tested on: HCC 2998
[43] = tested on: SW-620
[44] = tested on: OVCAR-4
[45] = tested on: HT-29
[46] = tested on: NCI-H23
[47] = tested on: MDA-N
[48] = tested on: RXF 393
[49] = tested on: 786-0
[50] = tested on: Malme-3M
[51] = tested on: IGROV-1
[52] = tested on: OVCAR-5
[53] = tested on: UO-31
[54] = tested on: U-251
[55] = tested on: HOP-92
[56] = tested on: NCI/ADR-RES
[57] = tested on: T47D
[58] = tested on: SK-MEL-2
[59] = tested on: NCI-H522

CCOc1snc(C(Cl)(Cl)Cl)c1Cl
GI50 [1]: 17.3 µM (inactive) | GI50 [2]: 11.7 µM (inactive) | GI50 [3]: 21.9 µM (inactive) | GI50 [4]: 19.8 µM (inactive) | GI50 [5]: 27.4 µM (inactive) | GI50 [6]: 17.7 µM (inactive) | GI50 [7]: 15.8 µM (inactive) | GI50 [8]: 17.7 µM (inactive) | GI50 [9]: 16.9 µM (inactive) | GI50 [10]: 23.1 µM (inactive) | GI50 [11]: 24.4 µM (inactive) | GI50 [12]: 7.85 µM (inactive) | GI50 [13]: 18.8 µM (inactive) | GI50 [14]: 10.7 µM (inactive) | GI50 [15]: 28.4 µM (inactive) | GI50 [16]: 18.9 µM (inactive) | GI50 [17]: 13.2 µM (inactive) | GI50 [18]: 17.5 µM (inactive) | GI50 [19]: 14.3 µM (inactive) | GI50 [20]: 26.9 µM (inactive) | GI50 [21]: 13.3 µM (inactive) | GI50 [22]: 17.3 µM (inactive) | GI50 [23]: 23.8 µM (inactive) | GI50 [24]: 18.3 µM (inactive) | GI50 [25]: 22.4 µM (inactive) | GI50 [26]: 9.33 µM (inactive) | GI50 [27]: 25.5 µM (inactive) | GI50 [28]: 12.3 µM (inactive) | GI50 [29]: 29 µM (inactive) | GI50 [30]: 6.75 µM (inactive) | GI50 [31]: 16.6 µM (inactive) | GI50 [32]: 14 µM (inactive) | GI50 [33]: 14.1 µM (inactive) | GI50 [34]: 19.4 µM (inactive) | GI50 [35]: 25 µM (inactive) | GI50 [36]: 60.5 µM (inactive) | GI50 [37]: 15.5 µM (inactive) | GI50 [38]: 28.6 µM (inactive) | GI50 [39]: 9.33 µM (inactive) | GI50 [40]: 7.83 µM (inactive) | GI50 [41]: 24.2 µM | GI50 [42]: 22.4 µM (inactive) | GI50 [43]: 30.3 µM (inactive) | GI50 [44]: 27.1 µM (inactive) | GI50 [45]: 15.5 µM (inactive) | GI50 [46]: 12 µM (inactive) | GI50 [47]: 21.9 µM (inactive) | GI50 [48]: 13.6 µM (inactive) | GI50 [49]: 31.7 µM (inactive) | GI50 [50]: 22.2 µM (inactive) | GI50 [51]: 31 µM (inactive) | GI50 [52]: > 100 µM (inactive) | GI50 [53]: 5.58 µM (inactive) | GI50 [54]: 27.7 µM (inactive)

CC(C)(C)[Si](C)(C)OCC1OC(n2cnc3c(N)ncnc32)C(O[Si](C)(C)C(C)(C)C)C1O[Si](C)(C)C(C)(C)C (stereo unspecified)
GI50 [1]: 6.11 µM (inactive) | GI50 [3]: 10.3 µM (inactive) | GI50 [5]: 13.9 µM (inactive) | GI50 [6]: 13.4 µM (inactive) | GI50 [7]: 24.9 µM (inactive) | GI50 [8]: 15.1 µM (inactive) | GI50 [9]: 6.43 µM (inactive) | GI50 [11]: 14.1 µM (inactive) | GI50 [12]: 6.82 µM (inactive) | GI50 [13]: 19.5 µM (inactive) | GI50 [55]: 33.7 µM (inactive) | GI50 [56]: > 100 µM (inactive) | GI50 [15]: 2.85 µM (inactive) | GI50 [16]: 15.6 µM (inactive) | GI50 [18]: 9.27 µM (inactive) | GI50 [19]: 6.17 µM (inactive) | GI50 [20]: 4.11 µM (inactive) | GI50 [21]: 2.04 µM (inactive) | GI50 [23]: 14.9 µM (inactive) | GI50 [25]: 10.9 µM (inactive) | GI50 [57]: 11.9 µM (inactive) | GI50 [29]: 11.1 µM (inactive) | GI50 [31]: 7.93 µM (inactive) | GI50 [58]: 15.2 µM (inactive) | GI50 [32]: 10.3 µM (inactive) | GI50 [33]: 2.87 µM (inactive) | GI50 [34]: 7.41 µM (inactive) | GI50 [59]: 7.76 µM (inactive) | GI50 [38]: > 10 µM (inactive) | GI50 [40]: 3.65 µM (inactive) | GI50 [41]: 35 µM | GI50 [43]: 10.8 µM (inactive) | GI50 [45]: 9.75 µM (inactive) | GI50 [47]: 7.14 µM (inactive) | GI50 [49]: 3.66 µM (inactive) | GI50 [50]: 44.9 µM (inactive) | GI50 [51]: 8.39 µM (inactive)
